In PubChem BioAssay AID270 (DTP/NCI, 2004):
“And” between values parts separate entries of the source, which are not always exact repeats. Identical values can stand only once. Results filed as inconclusive are left out.

Test system: BDF1 mice, s.c. Lewis lung carcinoma, T/C %
Experiment: NCI In Vivo Anticancer Drug Screen. Data for tumor model Lewis Lung Carcinoma (subcutaneous) in B6D2F1 (BDF1) mice
Outline: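 Tumor-bearing mice were treated with test compound, and either survival or tumor size was recorded. Values are the treated-group measurement divided by that of the vehicle-treated control group.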

`CO[C@@H]1[C@@H](OC2OC(C)C(OC3CC(C)(O)C(OC(=O)CC(C)C)C(C)O3)C(N(C)C)C2O)[C@@H](CC=O)C[C@@H](C)C(=O)/C=C/C2O[C@H]2C[C@@H](C)OC(=O)C[C@H]1OC(C)=O` (stereo partly specified) was tested, and the T/C (endpoint: mean tumor weight, dose: 37.5 mg/kg/injection, schedule: Q01DX011 (ip), vehicle: other, higher = larger tumour) was 98 % of control, the T/C (endpoint: mean tumor weight, dose: 37.5 mg/kg/injection, schedule: Q01DX011 (ip), vehicle: saline, higher = larger tumour) was 83 % of control and the T/C (endpoint: mean tumor weight, dose: 75.0 mg/kg/injection, schedule: Q01DX011 (ip), vehicle: other, higher = larger tumour) was 76 % of control. For the same compound, the T/C (endpoint: mean tumor weight, dose: 150.0 mg/kg/injection, schedule: Q01DX011 (ip), vehicle: other, higher = larger tumour) was 47 % of control, the T/C (endpoint: mean tumor weight, dose: 150.0 mg/kg/injection, schedule: Q01DX011 (ip), vehicle: saline, higher = larger tumour) was 63 % of control and 81 % of control and the T/C (endpoint: mean tumor weight, dose: 300.0 mg/kg/injection, schedule: Q01DX011 (ip), vehicle: other, higher = larger tumour) was 15 % of control. The T/C (endpoint: mean tumor weight, dose: 300.0 mg/kg/injection, schedule: Q01DX011 (ip), vehicle: saline, higher = larger tumour) was 44 % of control and 48 % of control.
For `CCC(=O)NC1=C(N2CC2)C(=O)C(NC(=O)CC)=C(N2CC2)C1=O`, the T/C (endpoint: mean tumor weight, dose: 1.8 mg/kg/injection, schedule: Q01DX011 (ip), vehicle: other, higher = larger tumour) was 72 % of control, the T/C (endpoint: mean tumor weight, dose: 2.7 mg/kg/injection, schedule: Q01DX011 (ip), vehicle: other, higher = larger tumour) was 54 % of control and the T/C (endpoint: mean tumor weight, dose: 4.0 mg/kg/injection, schedule: Q01DX011 (ip), vehicle: other, higher = larger tumour) was 27 % of control. The T/C (endpoint: mean tumor weight, dose: 6.0 mg/kg/injection, schedule: Q01DX011 (ip), vehicle: other, higher = larger tumour) was 28 % of control.
In the case of `C[C@]12CC[C@H](O)CC1=CC[C@@H]1[C@@H]2CC[C@]2(C)c3nc4ccccc4cc3C[C@@H]12`, the T/C (endpoint: mean tumor weight, dose: 0.2 mg/kg/injection, schedule: Q01DX011 (sc), vehicle: steriod suspending solution, higher = larger tumour) is reported as 104 % of control, the T/C (endpoint: mean tumor weight, dose: 0.4 mg/kg/injection, schedule: Q01DX011 (sc), vehicle: steriod suspending solution, higher = larger tumour) is reported as 87 % of control and the T/C (endpoint: mean tumor weight, dose: 0.8 mg/kg/injection, schedule: Q01DX011 (sc), vehicle: steriod suspending solution, higher = larger tumour) is reported as 95 % of control. The T/C (endpoint: mean tumor weight, dose: 1.6 mg/kg/injection, schedule: Q01DX011 (sc), vehicle: steriod suspending solution, higher = larger tumour) was 117 % of control, the T/C (endpoint: mean tumor weight, dose: 3.25 mg/kg/injection, schedule: Q01DX011 (sc), vehicle: steriod suspending solution, higher = larger tumour) was 93 % of control and the T/C (endpoint: mean tumor weight, dose: 7.5 mg/kg/injection, schedule: Q01DX011 (sc), vehicle: steriod suspending solution, higher = larger tumour) was 63 % of control. The T/C (endpoint: mean tumor weight, dose: 15.6 mg/kg/injection, schedule: Q01DX011 (sc), vehicle: steriod suspending solution, higher = larger tumour) was 70 % of control, the T/C (endpoint: mean tumor weight, dose: 31.3 mg/kg/injection, schedule: Q01DX011 (sc), vehicle: steriod suspending solution, higher = larger tumour) was 43 % of control and the T/C (endpoint: mean tumor weight, dose: 60.0 mg/kg/injection, schedule: Q01DX011 (sc), vehicle: steriod suspending solution, higher = larger tumour) was 95 % of control. The T/C (endpoint: mean tumor weight, dose: 62.5 mg/kg/injection, schedule: Q01DX011 (sc), vehicle: steriod suspending solution, higher = larger tumour) was 91 % of control, the T/C (endpoint: mean tumor weight, dose: 90.0 mg/kg/injection, schedule: Q01DX011 (sc), vehicle: steriod suspending solution, higher = larger tumour) was 83 % of control and the T/C (endpoint: mean tumor weight, dose: 125.0 mg/kg/injection, schedule: Q01DX011 (sc), vehicle: steriod suspending solution, higher = larger tumour) was 52 % of control. The T/C (endpoint: mean tumor weight, dose: 500.0 mg/kg/injection, schedule: Q01DX011 (sc), vehicle: steriod suspending solution, higher = larger tumour) was 77 % of control.
For `CC[C@]1(O)C[C@H](OC2CC(N(C)C)C(OC3CC(O)C(O)C(C)O3)C(C)O2)c2c(cc3c(c2O)C(=O)c2c(O)ccc(O)c2C3=O)[C@H]1C(=O)OC` (stereo partly specified), the T/C (endpoint: median survival time, dose: 0.25 mg/kg/injection, schedule: Q01DX009 (ip), vehicle: saline with Tween-80, higher = longer survival) was 118 % of control, the T/C (endpoint: median survival time, dose: 0.5 mg/kg/injection, schedule: Q01DX009 (ip), vehicle: saline with Tween-80, higher = longer survival) was 110 % of control and the T/C (endpoint: median survival time, dose: 1.0 mg/kg/injection, schedule: Q01DX009 (ip), vehicle: saline with Tween-80, higher = longer survival) was 123 % of control. For the same compound, the T/C (endpoint: median survival time, dose: 2.0 mg/kg/injection, schedule: Q01DX009 (ip), vehicle: saline with Tween-80, higher = longer survival) was 110 % of control.
For `COc1c(OC)c(O)c2c(=O)cc(-c3ccc(O)cc3)oc2c1OC`, the T/C (endpoint: mean tumor weight, dose: 25.0 mg/kg/injection, schedule: Q01DX011 (sc), vehicle: steriod suspending solution, higher = larger tumour) was 100 % of control, the T/C (endpoint: mean tumor weight, dose: 50.0 mg/kg/injection, schedule: Q01DX011 (sc), vehicle: steriod suspending solution, higher = larger tumour) was 81 % of control and the T/C (endpoint: mean tumor weight, dose: 100.0 mg/kg/injection, schedule: Q01DX011 (sc), vehicle: steriod suspending solution, higher = larger tumour) was 85 % of control. The T/C (endpoint: mean tumor weight, dose: 200.0 mg/kg/injection, schedule: Q01DX011 (sc), vehicle: steriod suspending solution, higher = larger tumour) was 68 % of control.
`Cc1ccc2oc(-c3ccccc3)c(O)c(=O)c2c1` was tested, and the T/C (endpoint: mean tumor weight, dose: 18.8 mg/kg/injection, schedule: Q01DX010 (ip), vehicle: saline, higher = larger tumour) was 77 % of control, the T/C (endpoint: mean tumor weight, dose: 37.5 mg/kg/injection, schedule: Q01DX010 (ip), vehicle: saline, higher = larger tumour) was 73 % of control and the T/C (endpoint: mean tumor weight, dose: 75.0 mg/kg/injection, schedule: Q01DX010 (ip), vehicle: saline, higher = larger tumour) was 57 % of control. The T/C (endpoint: mean tumor weight, dose: 150.0 mg/kg/injection, schedule: Q01DX010 (ip), vehicle: saline, higher = larger tumour) was 86 % of control.
